Tested on: Water Avoidance Stress-Induced Hyperdefecation Model
Experiment: Inhibition test of the number of stools using water avoidance stress-induced hyperdefecation model
Assay type: in vivo, rat
Description: Each of rats was freely allowed to have an enteral nutritional supplement, ELENTAL (0.25 g/mL; manufactured by Ajinomoto Co., Inc.) contained in a water-feeding bottle for seven days before a treatment with TNBS (2,4,6-trinitrobenzene sulfonic acid). The rats were fasted from the day before the TNBS administration day, and drinking water instead of ELENTAL was contained in the water-feeding bottle. On the day of the TNBS treatment (the rat: 8-week-old), 10 mL of physiological saline was intrarectally injected to the rat under anesthetization with ethyl ether to wash the enteral content. After the washing, the rat was allowed to stand longer than 2 hours, and 1 mL of 5 or 30 mg/head of TNBS in 40% ethanol/physiological saline (vehicle) was applied (injected) through the rectal injection under anesthetization with pentobarbital. Further, a silicone plug was inserted to the anus of the rat to stay the TNBS solution in the injection site, and the surrounding of the anus was fixed with an adhesive cloth elastic bandage (Elastopore). After about four hours of the TNBS treatment, the Elastopore and the silicone plug were removed from the rat, and 10 mL of physiological saline was intrarectally injected to the rat to discharge the enteral content. The animal was conventionally bled for four weeks from the TNBS treatment to recover from colitis. Moreover, to each of positive control rats, alosetron was orally administered singly before one hour of the stress loading.
Moreover, to each of positive control rats, alosetron (10 mg/kg) was orally administered singly before one hour of the water-stress loading. On the day of the measurement of the number of stools (the rat: 12-week-old), the animal was allowed to stand on a block (10 cm×5 cm×10 cm) installed in a water bath (about 50×30×40 cm, water depth: 5 cm) for one hour. However, each of animals on which no water environment stress was loaded (normal group) was allowed to stand in a waterless bath. The total number of stools excreted for the one hour after the animal was allowed to stand in the water bath was measured as the number of stools. Moreover, the nature of stools were compared and examined.

| Structure (SMILES) | number of stools excreted for one hour compared with the control group (alosetron 10 mg/kg orally, single dose one hour before water-stress loading, p<0.001, t-test) | number of stools excreted for one hour compared with the control (rifaximin 100 mg/kg orally for 9 days, rats recovered from TNBS colitis, p<0.001, Dunnett test) | dose dependence of the defecation inhibition effect (rifaximin 6.25, 25 and 100 mg/kg orally for 9 days) | nature of stool (rifaximin-administered group, orally for 9 days) | motility of the intestinal tract (rifaximin-administered group, concluded from number and nature of stools) |
| --- | --- | --- | --- | --- | --- |
| Cc1[nH]cnc1CN1CCc2c(c3ccccc3n2C)C1=O [alosetron] | showed a significantly effect compared with the control group |  |  |  |  |
| CO[C@H]1/C=C/O[C@@]2(C)Oc3c(C)c(O)c4c(O)c(c5c(nc6cc(C)ccn65)c4c3C2=O)NC(=O)/C(C)=C\C=C\[C@H](C)[C@H](O)[C@@H](C)[C@@H](O)[C@@H](C)[C@H](OC(C)=O)[C@@H]1C [rifaximin] |  | decreased the number of stools compared with the control | depended on the dose | normalization in the nature of stool was observed | the motility of the intestinal tract was improved |
